In patent publication US20240409530A1, “Disubstituted Pyrimidine Compounds for Ketohexokinase Inhibition” (Centennial Therapeutics, LLC, priority 2023, published 2024):

Assays:
Assay in all cases: KHK inhibition assay, recombinant isozyme (coupled pyruvate kinase/LDH, NADH absorbance 340 nm)
Assay type in all cases: biochemical
Settings in all cases: recombinant isozyme 6 nM, fructose 2 mM, ATP 0.1 mM
Human recombinant KHK-A = Human recombinant KHK-A (Homo sapiens (Human), UniProt P50053)
Method: (§1) Determination of Human and Rat recombinant KHK-A and KHK-C isozyme IC50 Values
(§2) An assay reagent cocktail was prepared by combining NADH, water, TEA, KCl, MgCl2, PEP, ATP, DTT, coupling enzymes (pyruvate kinase and lactate dehydrogenase, LDH) to final concentrations as shown in Table B.
(§3) To this was added the relevant KHK isozyme to a final concentration of 6 nM. Aliquots of each inhibitor compound were diluted via 5-fold serial dilutions to produce final concentrations ranging from 1000 nM to 0.064 nM. The inhibitor aliquots were added to the assay reagent cocktail containing KHK with fructose (at a concentration of 2 mM) in a 96-well plate. The absorbance at 340 nm was measured via spectrophotometry and inhibition was analyzed using non-linear regression.

Human recombinant KHK-C = Human recombinant KHK-C (Homo sapiens (Human), UniProt P50053)
Method: as §1, §2, §3

Rat recombinant KHK-A = Rat recombinant KHK-A (Rattus norvegicus (Rat), UniProt Q02974)
Method: as §1, §2, §3

Rat recombinant KHK-C = Rat recombinant KHK-C (Rattus norvegicus (Rat), UniProt Q02974)
Method: as §1, §2, §3

Rat recombinant KHK-A, sequence (Q02974 other isoform, or with tags, fused parts or gaps): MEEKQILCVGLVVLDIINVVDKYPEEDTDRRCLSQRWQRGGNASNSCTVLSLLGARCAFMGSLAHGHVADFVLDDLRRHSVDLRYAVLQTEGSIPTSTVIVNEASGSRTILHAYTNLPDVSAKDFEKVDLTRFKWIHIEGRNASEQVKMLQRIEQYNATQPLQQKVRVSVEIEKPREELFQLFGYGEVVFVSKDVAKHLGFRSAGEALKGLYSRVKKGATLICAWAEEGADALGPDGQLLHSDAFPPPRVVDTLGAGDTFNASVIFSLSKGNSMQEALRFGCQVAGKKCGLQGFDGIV
Rat recombinant KHK-C, sequence (Q02974 whole entry): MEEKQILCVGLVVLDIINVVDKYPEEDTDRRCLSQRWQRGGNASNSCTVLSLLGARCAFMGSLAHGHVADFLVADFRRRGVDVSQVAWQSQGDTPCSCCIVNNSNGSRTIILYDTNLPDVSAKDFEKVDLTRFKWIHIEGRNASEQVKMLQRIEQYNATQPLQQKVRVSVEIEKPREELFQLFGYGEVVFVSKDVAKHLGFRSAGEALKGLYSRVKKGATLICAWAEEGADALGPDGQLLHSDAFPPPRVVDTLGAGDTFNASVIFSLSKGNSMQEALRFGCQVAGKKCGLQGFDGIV
Human recombinant KHK-A, sequence (P50053 other isoform, or with tags, fused parts or gaps): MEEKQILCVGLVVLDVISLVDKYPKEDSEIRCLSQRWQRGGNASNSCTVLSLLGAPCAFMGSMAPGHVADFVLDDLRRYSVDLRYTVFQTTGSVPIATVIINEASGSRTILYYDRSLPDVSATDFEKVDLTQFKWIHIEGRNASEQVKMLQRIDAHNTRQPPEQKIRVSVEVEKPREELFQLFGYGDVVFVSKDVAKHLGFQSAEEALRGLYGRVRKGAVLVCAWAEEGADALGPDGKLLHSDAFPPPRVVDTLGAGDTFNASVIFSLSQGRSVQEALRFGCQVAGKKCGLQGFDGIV
Human recombinant KHK-C, sequence (P50053 whole entry): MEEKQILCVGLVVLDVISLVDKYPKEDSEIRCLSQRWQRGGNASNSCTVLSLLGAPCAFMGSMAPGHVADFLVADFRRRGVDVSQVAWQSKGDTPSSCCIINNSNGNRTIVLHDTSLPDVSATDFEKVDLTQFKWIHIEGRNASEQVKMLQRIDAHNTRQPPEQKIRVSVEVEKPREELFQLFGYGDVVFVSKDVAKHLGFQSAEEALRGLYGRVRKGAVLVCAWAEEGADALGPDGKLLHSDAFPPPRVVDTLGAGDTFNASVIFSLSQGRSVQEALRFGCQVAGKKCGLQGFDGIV

Compound `CN1CC(n2cc(-c3cc(C(F)(F)F)nc(N4C[C@@H](O)[C@@H]4C(F)(F)F)n3)cn2)C1` (racemic) [Compound A25, (2R,3R)-1-{4-[1-(1-methyl-3-azetidinyl)-4-pyrazolyl]-6-(trifluoromethyl)-2-pyrimidinyl}-2-(trifluoromethyl)-3-azetidinol] has an IC50 (Human recombinant KHK-A) of 2.2 nM, an IC50 (Human recombinant KHK-C) of 5.22 nM and an IC50 (Rat recombinant KHK-A) of 5.7 nM. For the same compound, the IC50 (Rat recombinant KHK-C) was 15 nM.
Work on `O[C@@H]1CN(c2nc(-c3cnn(C4CNC4)c3)cc(C(F)(F)F)n2)[C@H]1C(F)(F)F` (racemic) [Compound A31, (2R,3R)-1-{4-[1-(3-azetidinyl)-4-pyrazolyl]-6-(trifluoromethyl)-2-pyrimidinyl}-2-(trifluoromethyl)-3-azetidinol] yielded an IC50 (Human recombinant KHK-C) of 16.8 nM.
Compound `C[C@H]1CCN1c1nc(-c2cnn(CC(=O)N3CCNCC3)c2)c(Cl)c(C(F)(F)F)n1` [Compound A4, 2-(4-{2-[(S)-2-methyl-1-azetidinyl]-5-chloro-6-(trifluoromethyl)-4-pyrimidinyl}-1-pyrazolyl)-1-(1-piperazinyl)-1-ethanone] has an IC50 (Human recombinant KHK-A) of 1.8 nM, an IC50 (Human recombinant KHK-C) of 5.94 nM and an IC50 (Rat recombinant KHK-A) of 1.3 nM. For the same compound, the IC50 (Rat recombinant KHK-C) was 4.9 nM.
`COc1c(-c2cnn(CC(=O)N3CCNCC3)c2)nc(N2CC[C@@H]2C)nc1C(F)(F)F` [Compound A5, 2-(4-{2-[(S)-2-methyl-1-azetidinyl]-5-methoxy-6-(trifluoromethyl)-4-pyrimidinyl}-1-pyrazolyl)-1-(1-piperazinyl)-1-ethanone] gave an IC50 (Human recombinant KHK-A) of 69 nM, an IC50 (Human recombinant KHK-C) of 30.6 nM and an IC50 (Rat recombinant KHK-A) of 26 nM. For the same compound, the IC50 (Rat recombinant KHK-C) was 44 nM.
`COc1c(-c2cnn(C3CN(C)C3)c2)nc(N2C[C@@H](O)[C@@H]2C)nc1C(F)(F)F` [Compound A8, (2S,3R)-1-{5-methoxy-4-[1-(1-methyl-3-azetidinyl)-4-pyrazolyl]-6-(trifluoromethyl)-2-pyrimidinyl}-2-methyl-3-azetidinol] showed an IC50 (Human recombinant KHK-A) of 7.8 nM, an IC50 (Human recombinant KHK-C) of 6.46 nM and an IC50 (Rat recombinant KHK-A) of 5.5 nM. For the same compound, the IC50 (Rat recombinant KHK-C) was 16 nM.
With `C[C@H]1[C@H](O)CN1c1nc(-c2cnn(C3CN(C)C3)c2)c(Cl)c(C(F)(F)F)n1` [Compound A10, (2S,3R)-1-{5-chloro-4-[1-(1-methyl-3-azetidinyl)-4-pyrazolyl]-6-(trifluoromethyl)-2-pyrimidinyl}-2-methyl-3-azetidinol] the IC50 (Human recombinant KHK-A) was 0.2 nM, the IC50 (Human recombinant KHK-C) was 0.856 nM and the IC50 (Rat recombinant KHK-A) was 0.2 nM. For the same compound, the IC50 (Rat recombinant KHK-C) was 1.1 nM.
With `O=C(Cn1cc(-c2nc(N3CC[C@@H]3C(F)F)nc(C(F)F)c2C2CC2)cn1)N1CCNCC1` [Compound A13, 2-(4-{2-[(R)-2-(difluoromethyl)-1-azetidinyl]-5-cyclopropyl-6-(difluoromethyl)-4-pyrimidinyl}-1-pyrazolyl)-1-(1-piperazinyl)-1-ethanone] the IC50 (Human recombinant KHK-C) was 41.1 nM.
With `O=C(Cn1cc(-c2cc(C(F)F)nc(N3CC[C@@H]3C(F)F)n2)cn1)N1CCNCC1` [Compound A14, 2-(4-{2-[(R)-2-(difluoromethyl)-1-azetidinyl]-6-(difluoromethyl)-4-pyrimidinyl}-1-pyrazolyl)-1-(1-piperazinyl)-1-ethanone] the IC50 (Human recombinant KHK-C) was 318 nM.
For `COc1c(-c2cnn(CC(=O)N3CCNCC3)c2)nc(N2CC[C@@H]2C(F)(F)F)nc1C(F)F` [Compound A15, 2-(4-{2-[(R)-2-(trifluoromethyl)-1-azetidinyl]-6-(difluoromethyl)-5-methoxy-4-pyrimidinyl}-1-pyrazolyl)-1-(1-piperazinyl)-1-ethanone], the IC50 (Human recombinant KHK-C) was 32.7 nM.
In the case of `O=C(Cn1cc(-c2nc(N3CC[C@@H]3C(F)F)nc(C(F)(F)F)c2F)cn1)N1CCNCC1` [Compound A16, 2-(4-{2-[(R)-2-(difluoromethyl)-1-azetidinyl]-5-fluoro-6-(trifluoromethyl)-4-pyrimidinyl}-1-pyrazolyl)-1-(1-piperazinyl)-1-ethanone], the IC50 (Human recombinant KHK-C) is reported as 47.8 nM.
`O=C(Cn1cc(-c2nc(N3CC[C@@H]3C(F)F)nc(C(F)(F)F)c2C2CC2)cn1)N1CCNCC1` [Compound A17, 2-(4-{2-[(R)-2-(difluoromethyl)-1-azetidinyl]-5-cyclopropyl-6-(trifluoromethyl)-4-pyrimidinyl}-1-pyrazolyl)-1-(1-piperazinyl)-1-ethanone] gave an IC50 (Human recombinant KHK-C) of 74.9 nM.
Work on `O=C(Cn1cc(-c2cc(C(F)F)nc(N3CC[C@@H]3C(F)(F)F)n2)cn1)N1CCNCC1` [Compound A20, 2-(4-{2-[(R)-2-(trifluoromethyl)-1-azetidinyl]-6-(difluoromethyl)-4-pyrimidinyl}-1-pyrazolyl)-1-(1-piperazinyl)-1-ethanone] yielded an IC50 (Human recombinant KHK-C) of 133 nM.
Work on `C[C@H]1CCN1c1nc(-c2cnn(CC(=O)N3CCNCC3)c2)c(F)c(C(F)F)n1` [Compound A22, 2-(4-{2-[(S)-2-methyl-1-azetidinyl]-6-(difluoromethyl)-5-fluoro-4-pyrimidinyl}-1-pyrazolyl)-1-(1-piperazinyl)-1-ethanone] yielded an IC50 (Human recombinant KHK-C) of 65.8 nM.
For `COc1c(-c2cnn(CC(=O)N3CCNCC3)c2)nc(N2CC[C@@H]2C)nc1C(F)F` [Compound A23, 2-(4-{2-[(S)-2-methyl-1-azetidinyl]-6-(difluoromethyl)-5-methoxy-4-pyrimidinyl}-1-pyrazolyl)-1-(1-piperazinyl)-1-ethanone], the IC50 (Human recombinant KHK-C) was 54.6 nM.
Work on `CCc1c(-c2cnn(CC(=O)N3CCNCC3)c2)nc(N2CC[C@@H]2C)nc1C(F)F` [Compound A26, 2-(4-{2-[(S)-2-methyl-1-azetidinyl]-6-(difluoromethyl)-5-ethyl-4-pyrimidinyl}-1-pyrazolyl)-1-(1-piperazinyl)-1-ethanone] yielded an IC50 (Human recombinant KHK-A) of 13 nM, an IC50 (Human recombinant KHK-C) of 32.9 nM and an IC50 (Rat recombinant KHK-A) of 5.2 nM. It also gave an IC50 (Rat recombinant KHK-C) of 26 nM.
`COc1c(-c2cnn(CC(=O)N3CCNCC3)c2)nc(N2CC[C@@H]2C(F)(F)F)nc1C(F)(F)F` [Compound A28, 2-(4-{2-[(R)-2-(trifluoromethyl)-1-azetidinyl]-5-methoxy-6-(trifluoromethyl)-4-pyrimidinyl}-1-pyrazolyl)-1-(1-piperazinyl)-1-ethanone] showed an IC50 (Human recombinant KHK-A) of 15 nM, an IC50 (Human recombinant KHK-C) of 18 nM and an IC50 (Rat recombinant KHK-A) of 4.1 nM. The IC50 (Rat recombinant KHK-C) was 20 nM.
Compound `O=C(Cn1cc(-c2nc(N3CC[C@@H]3C(F)(F)F)nc(C(F)(F)F)c2Cl)cn1)N1CCNCC1` [Compound A29, 2-(4-{2-[(R)-2-(trifluoromethyl)-1-azetidinyl]-5-chloro-6-(trifluoromethyl)-4-pyrimidinyl}-1-pyrazolyl)-1-(1-piperazinyl)-1-ethanone] has an IC50 (Human recombinant KHK-C) of 5.03 nM.
`C[C@H]1CCN1c1nc(-c2cnn(CC(=O)N3CCNCC3)c2)c(C2CC2)c(C(F)(F)F)n1` [Compound A30, 2-(4-{2-[(S)-2-methyl-1-azetidinyl]-5-cyclopropyl-6-(trifluoromethyl)-4-pyrimidinyl}-1-pyrazolyl)-1-(1-piperazinyl)-1-ethanone] was tested, and the IC50 (Human recombinant KHK-C) was 41.3 nM.
`C[C@H]1CCN1c1nc(-c2cnn(CC(=O)N3CCNCC3)c2)c(F)c(C(F)(F)F)n1` [Compound A32, 2-(4-{2-[(S)-2-methyl-1-azetidinyl]-5-fluoro-6-(trifluoromethyl)-4-pyrimidinyl}-1-pyrazolyl)-1-(1-piperazinyl)-1-ethanone] gave an IC50 (Human recombinant KHK-A) of 12 nM, an IC50 (Human recombinant KHK-C) of 23.2 nM and an IC50 (Rat recombinant KHK-A) of 8.2 nM. It also gave an IC50 (Rat recombinant KHK-C) of 20 nM.
In the case of `C[C@H]1[C@H](O)CN1c1nc(-c2cnn(C3CN(C)C3)c2)c(C2CC2)c(C(F)(F)F)n1` [Compound A34, (2S,3R)-1-{5-cyclopropyl-4-[1-(1-methyl-3-azetidinyl)-4-pyrazolyl]-6-(trifluoromethyl)-2-pyrimidinyl}-2-methyl-3-azetidinol], the IC50 (Human recombinant KHK-C) is reported as 25.4 nM.
`COc1c(-c2cnn(CC(=O)N3CCNCC3)c2)nc(N2CC[C@@H]2C(F)F)nc1C(F)(F)F` [Compound A36, 2-(4-{2-[(R)-2-(difluoromethyl)-1-azetidinyl]-5-methoxy-6-(trifluoromethyl)-4-pyrimidinyl}-1-pyrazolyl)-1-(1-piperazinyl)-1-ethanone] gave an IC50 (Human recombinant KHK-C) of 36.6 nM.
In the case of `O=C(Cn1cc(-c2nc(N3CC[C@@H]3C(F)F)nc(C(F)F)c2Cl)cn1)N1CCNCC1` [Compound A37, 2-(4-{2-[(R)-2-(difluoromethyl)-1-azetidinyl]-5-chloro-6-(difluoromethyl)-4-pyrimidinyl}-1-pyrazolyl)-1-(1-piperazinyl)-1-ethanone], the IC50 (Human recombinant KHK-C) is reported as 11.9 nM.
`O=C(Cn1cc(-c2nc(N3CC[C@@H]3C(F)F)nc(C(F)F)c2F)cn1)N1CCNCC1` [Compound A39, 2-(4-{2-[(R)-2-(difluoromethyl)-1-azetidinyl]-6-(difluoromethyl)-5-fluoro-4-pyrimidinyl}-1-pyrazolyl)-1-(1-piperazinyl)-1-ethanone] gave an IC50 (Human recombinant KHK-C) of 110 nM.
`CCc1c(-c2cnn(CC(=O)N3CCNCC3)c2)nc(N2CC[C@@H]2C(F)F)nc1C(F)F` [Compound A40, 2-(4-{2-[(R)-2-(difluoromethyl)-1-azetidinyl]-6-(difluoromethyl)-5-ethyl-4-pyrimidinyl}-1-pyrazolyl)-1-(1-piperazinyl)-1-ethanone] gave an IC50 (Human recombinant KHK-C) of 33.2 nM.
`CCc1c(-c2cnn(CC(=O)N3CCNCC3)c2)nc(N2CC[C@@H]2C(F)F)nc1C(F)(F)F` [Compound A41, 2-(4-{2-[(R)-2-(difluoromethyl)-1-azetidinyl]-5-ethyl-6-(trifluoromethyl)-4-pyrimidinyl}-1-pyrazolyl)-1-(1-piperazinyl)-1-ethanone] was tested, and the IC50 (Human recombinant KHK-C) was 17.1 nM.
`COc1c(-c2cnn(CC(=O)N3CCNCC3)c2)nc(N2CC[C@@H]2C(F)F)nc1C(F)F` [Compound A44, 2-(4-{2-[(R)-2-(difluoromethyl)-1-azetidinyl]-6-(difluoromethyl)-5-methoxy-4-pyrimidinyl}-1-pyrazolyl)-1-(1-piperazinyl)-1-ethanone] showed an IC50 (Human recombinant KHK-C) of 61 nM.
